Results from paper PMC4303209, “A novel phosphatidylinositol 3-kinase (PI3K) inhibitor directs a potent FOXO-dependent, p53-independent cell cycle arrest phenotype characterized by the differential induction of a subset of FOXO-regulated genes” (Breast Cancer Research : BCR, 2014).

Tested on: MCF-7 breast cancer cells
Experiment: Microarray gene expression analysis (Agilent whole human genome 4 x 44K; compound vs DMSO, LIMMA log2 fold change)
Assay type: cell-based
Details: Apoptosis genes

Compound: Oc1cccc(-c2nc(N3CCOCC3)c3oc4ncccc4c3n2)c1 [PI-103]
- HSPD1 log2FC (Gene 3329): -0.080
- HSPE1 log2FC (Gene 3336): -0.309
- HTR2B log2FC (Gene 3357): -0.397
- IAPP log2FC (Gene 3375): -0.066
- ID1 log2FC (Gene 3397): 0.070
- ID3 log2FC (Gene 3399): -0.082
- IFI16 log2FC (Gene 3428): 0.334
- IFI27 log2FC (Gene 3429): -0.196
- IFIT2 log2FC (Gene 3433): 1.643
- IFIT3 log2FC (Gene 3437): 0.140
- IFNG log2FC (Gene 3458): -0.040
- IGBP1 log2FC (Gene 3476): 0.178
- IGF1 log2FC (Gene 3479): 0.051
- IGF1R log2FC (Gene 3480): 0.084
- IGF2R log2FC (Gene 3482): 0.351
- IGFBP3 log2FC (Gene 3486): 0.086
- IKBKB log2FC (Gene 3551): 0.122
- IL1B log2FC (Gene 3553): 0.035
- IL1RN log2FC (Gene 3557): -0.235
- IL2 log2FC (Gene 3558): -0.008
- IL4 log2FC (Gene 3565): -0.010
- IL6 log2FC (Gene 3569): 0.006
- IL6R log2FC (Gene 3570): 0.551
- IL6ST log2FC (Gene 3572): 0.257
- IL7 log2FC (Gene 3574): 0.210
- IL10 log2FC (Gene 3586): -0.050
- TNFRSF9 log2FC (Gene 3604): -0.328
- ING2 log2FC (Gene 3622): 0.264
- INHBA log2FC (Gene 3624): -0.687
- INHBB log2FC (Gene 3625): -0.799
- INS log2FC (Gene 3630): -0.043
- INPP5D log2FC (Gene 3635): -0.048
- INSL3 log2FC (Gene 3640): -0.069
- IRAK1 log2FC (Gene 3654): -0.233
- IRF1 log2FC (Gene 3659): -0.382
- IRF3 log2FC (Gene 3661): -0.472
- IRF5 log2FC (Gene 3663): 1.340
- IRF7 log2FC (Gene 3665): 0.353
- ITGA1 log2FC (Gene 3672): 0.190
- ITGA5 log2FC (Gene 3678): -0.454
- ITGAV log2FC (Gene 3685): 0.599
- ITGB1 log2FC (Gene 3688): 0.583
- ITPR1 log2FC (Gene 3708): 0.249
- JAG2 log2FC (Gene 3714): 0.522
- JAK2 log2FC (Gene 3717): 0.369
- JAK3 log2FC (Gene 3718): -0.043
- JUN log2FC (Gene 3725): -0.937
- KCNMA1 log2FC (Gene 3778): 0.170
- KNG1 log2FC (Gene 3827): -0.057
- KPNA1 log2FC (Gene 3836): -0.280
- KPNB1 log2FC (Gene 3837): 0.240
- KRT8 log2FC (Gene 3856): -0.277
- KRT18 log2FC (Gene 3875): -0.442
- LCK log2FC (Gene 3932): -0.114
- LEP log2FC (Gene 3952): -0.051
- LGALS7 log2FC (Gene 3963): -0.229
- LIG4 log2FC (Gene 3981): 0.035
- LMNA log2FC (Gene 4000): -0.013
- LMNB1 log2FC (Gene 4001): -0.018
- LRP6 log2FC (Gene 4040): -0.118
- LTBR log2FC (Gene 4055): -0.111
- LTK log2FC (Gene 4058): -0.062
- LYN log2FC (Gene 4067): -0.359
- SMAD3 log2FC (Gene 4088): 0.243
- SMAD6 log2FC (Gene 4091): 0.083
- MAL log2FC (Gene 4118): -0.429
- MAX log2FC (Gene 4149): -0.351
- MCF2 log2FC (Gene 4168): 0.031
- MCL1 log2FC (Gene 4170): -1.349
- MDK log2FC (Gene 4192): 0.235
- MDM2 log2FC (Gene 4193): -0.113
- MECP2 log2FC (Gene 4204): -0.128
- MEF2A log2FC (Gene 4205): -0.174
- MEF2C log2FC (Gene 4208): 0.238
- MEF2D log2FC (Gene 4209): -0.520
- MAP3K5 log2FC (Gene 4217): -0.660
- MEN1 log2FC (Gene 4221): 0.029
- KITLG log2FC (Gene 4254): -0.218
- MGMT log2FC (Gene 4255): -0.055
- MIF log2FC (Gene 4282): 0.230
- MLH1 log2FC (Gene 4292): 0.343
- MAP3K9 log2FC (Gene 4293): -0.693
- MAP3K10 log2FC (Gene 4294): 0.639
- MAP3K11 log2FC (Gene 4296): -0.577
- MMP9 log2FC (Gene 4318): -0.279
- MNAT1 log2FC (Gene 4331): 0.589
- MNT log2FC (Gene 4335): 1.538
- MPO log2FC (Gene 4353): -0.006
- CITED1 log2FC (Gene 4435): -0.101
- MSH2 log2FC (Gene 4436): 0.786
- MSX1 log2FC (Gene 4487): -0.243
- MUC1 log2FC (Gene 4582): -0.282
- MUC2 log2FC (Gene 4583): -0.081
- MUC5AC log2FC (Gene 4586): -0.288
- MUSK log2FC (Gene 4593): -0.262
- MX1 log2FC (Gene 4599): 0.148
- MYC log2FC (Gene 4609): 0.421
- MYD88 log2FC (Gene 4615): -0.601
- GADD45B log2FC (Gene 4616): 0.857
- NBN log2FC (Gene 4683): 0.619
- NDUFS1 log2FC (Gene 4719): 0.294
- NF1 log2FC (Gene 4763): 0.451
- NFATC4 log2FC (Gene 4776): 0.296
- NFE2L2 log2FC (Gene 4780): 0.540
- NFKB1 log2FC (Gene 4790): -0.256
- NFKBIA log2FC (Gene 4792): -0.656
- NGFR log2FC (Gene 4804): -0.069
- NKX3-1 log2FC (Gene 4824): -0.386
- NME1 log2FC (Gene 4830): 0.199
- NME2 log2FC (Gene 4831): 0.205
- NME3 log2FC (Gene 4832): -0.013
- NMT1 log2FC (Gene 4836): -0.214
- NODAL log2FC (Gene 4838): -0.025
- NOS3 log2FC (Gene 4846): -0.168
- NOTCH2 log2FC (Gene 4853): 0.274
- NPM1 log2FC (Gene 4869): 0.282
- NPTX1 log2FC (Gene 4884): -0.756
- NPY5R log2FC (Gene 4889): -0.042
- SLC11A2 log2FC (Gene 4891): 0.320
- NRAS log2FC (Gene 4893): -0.535
- NTF3 log2FC (Gene 4908): -1.099
- NTRK2 log2FC (Gene 4915): -0.265
- NR4A2 log2FC (Gene 4929): 0.442
- OCLN log2FC (Gene 4950): 0.409
- OPA1 log2FC (Gene 4976): 0.350
- TNFRSF11B log2FC (Gene 4982): 0.966
- OSM log2FC (Gene 5008): -0.008
- P2RX1 log2FC (Gene 5023): -0.016
- P2RX4 log2FC (Gene 5025): 0.348
- P2RX7 log2FC (Gene 5027): -0.319
- SERPINB2 log2FC (Gene 5055): -0.093
- PAK1 log2FC (Gene 5058): 0.071
- PAK2 log2FC (Gene 5062): -0.103
- PARK2 log2FC (Gene 5071): -0.149
- PAWR log2FC (Gene 5074): 0.876
- PAX3 log2FC (Gene 5077): -0.114
- PAX4 log2FC (Gene 5078): -0.073
- PAX7 log2FC (Gene 5081): -0.197
- PCNT log2FC (Gene 5116): 0.446
- PDCD1 log2FC (Gene 5133): -0.284
- PDCD2 log2FC (Gene 5134): -0.282
- PDE1A log2FC (Gene 5136): -0.171
- PDK1 log2FC (Gene 5163): 0.405
- PDK2 log2FC (Gene 5164): 1.524
- PDK4 log2FC (Gene 5166): 0.866
- PDPK1 log2FC (Gene 5170): 0.478
- PHB log2FC (Gene 5245): -0.382
- SERPINB9 log2FC (Gene 5272): -0.438
- SERPINB10 log2FC (Gene 5273): 0.028
- PIK3CA log2FC (Gene 5290): 0.818
- PIM1 log2FC (Gene 5292): 1.292
- PIK3R1 log2FC (Gene 5295): 0.203
- PLAGL1 log2FC (Gene 5325): 0.317
- PLAGL2 log2FC (Gene 5326): -1.296
- PLK1 log2FC (Gene 5347): -0.016
- PLSCR1 log2FC (Gene 5359): 0.371
- PMAIP1 log2FC (Gene 5366): -1.121
